Columns and labels:
[1] = biological target: T1, 5-Lipoxygenase from RBL-1 20,000xg Supernatant (Rattus norvegicus, UniProt P12527); assay: 5-lipoxygenase inhibitory activity, 20,000 xg supernatant from homogenized RBL-1 cells; assay type: biochemical; details: radiolabeled arachidonic acid, triplicate
T1 construct: 20,000 xg supernatant from 1.5 million homogenized RBL-1 cells; endogenous in cells; host or cells: RBL-1 cells (20,000 xg supernatant of homogenate)
T1 sequence (P12527 1-673): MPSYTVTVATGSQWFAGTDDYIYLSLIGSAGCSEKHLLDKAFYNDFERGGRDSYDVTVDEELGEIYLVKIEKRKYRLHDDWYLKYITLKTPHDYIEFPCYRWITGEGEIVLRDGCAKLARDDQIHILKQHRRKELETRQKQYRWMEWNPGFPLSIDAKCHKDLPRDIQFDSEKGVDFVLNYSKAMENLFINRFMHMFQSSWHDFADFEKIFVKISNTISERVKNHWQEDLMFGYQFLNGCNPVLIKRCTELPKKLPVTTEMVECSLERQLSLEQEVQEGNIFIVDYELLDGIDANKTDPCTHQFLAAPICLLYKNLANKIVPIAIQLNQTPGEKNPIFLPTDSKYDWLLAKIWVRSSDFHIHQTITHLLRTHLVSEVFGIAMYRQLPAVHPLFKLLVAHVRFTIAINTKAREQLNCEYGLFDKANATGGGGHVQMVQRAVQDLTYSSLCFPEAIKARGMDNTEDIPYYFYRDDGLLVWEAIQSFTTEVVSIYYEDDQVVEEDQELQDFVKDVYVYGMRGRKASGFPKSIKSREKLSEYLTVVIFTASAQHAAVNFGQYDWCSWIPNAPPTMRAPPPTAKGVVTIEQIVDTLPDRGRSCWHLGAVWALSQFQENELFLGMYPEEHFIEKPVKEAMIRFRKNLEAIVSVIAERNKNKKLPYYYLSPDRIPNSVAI
Procedure: Assays to determine 5-lipoxygenase inhibitory activity of representative compounds of the present invention were performed in […] incubations containing the 20,000 xg supernatant from 1.5 million homogenized RBL-1 cells and various concentrations of the test compound. Reactions were initiated by addition of radiolabeled arachidonic acid and terminated by acidification and ether extraction. Reaction products were separated from nonconverted substrate by thin layer chromatography and measured by liquid scintillation spectroscopy. All incubations are performed in triplicate. Inhibition of 5-lipoxygenase activity was calculated as the ratio of the amount of product formed in the presence and absence of inhibitor. […] (Dyer, R. D.; Haviv, F.; Hanel, A. M.; Bornemier, D. A.; Carter, G. W. Fed. Proc., Fed. Am. Soc. Exp. Biol. 1984, 43, 1462A).

[2] = tested on: Leukotrienes (biosynthesis); assay: Inhibition of leukotriene biosynthesis in vivo after oral administration, rat peritoneal anaphylaxis model; details: 1 h, gavage one hour prior to antigen challenge, read-out: Percent Inhibition of Leukotrienes; for inhibition in vivo at 100 µmol/kg: Oral Dose at 100 μmol/kg; for inhibition in vivo at 30 µmol/kg: Oral Dose at 30 μmol/kg; for inhibition in vivo at 200 µmol/kg: Oral Dose at 200 μmol/kg
Procedure: Inhibition of the biosynthesis of leuktrienes in vivo after oral administration of compound was determined using a rat peritoneal anaphylaxis model in a similar manner as that described by Young and coworkers (Young, P. R.; Dyer, R. D.; Carter, G. W. Fed. Proc., Fed. Am. Soc. Exp. Biol. 1985, 44, 1185). In this model rats were injected intraperitoneally (ip) with rabbit antibody to bovine serum albumin (BSA) and three hours later injected ip with BSA to induce an antgen-antibody response. Rats were sacrificed 15 minutes after this challenge and the peritoneal fluids were collected and analyzed for leukotriene levels. Test compounds were administered by gavage one hour prior to the antigen challenge. Percent inhibition values were determined by comparing the treatment group to the mean of the control group.

Structure (SMILES): NC(=O)N(O)CC#Cc1cccc(Oc2ccccc2)c1 [Example 33, N-Hydroxy-N-[3-(3-phenoxyphenyl)-2-propynyl]urea]
- IC50 [1]: 500 nM
- inhibition in vivo at 100 µmol/kg [2]: 99%

Structure (SMILES): CC(C#Cc1ccc(Sc2ccccc2)o1)N(O)C(N)=O (centres unmarked) [Example 59, N-hydroxy-N-[4-(5-thiophenoxy-2-furyl)-3-butyn-2-yl]urea]
- IC50 [1]: 200 nM
- inhibition in vivo at 30 µmol/kg [2]: 62%

Structure (SMILES): CC(C#CC1CCCCC1)N(O)C(N)=O (centres unmarked) [Example 8, N-Hydroxy-N-[4-cyclohexyl-3-butyn-2-yl]urea]
- IC50 [1]: 1900 nM
- inhibition in vivo at 200 µmol/kg [2]: 41%

Structure (SMILES): NC(=O)N(O)CC#Cc1ccccc1 [Example 32, N-Hydroxy-N,(3,phenyl-2-propynyl)urea]
- IC50 [1]: 5900 nM
- inhibition in vivo at 100 µmol/kg [2]: 97%

Structure (SMILES): CC(C#Cc1ccc(Oc2ccccc2)o1)N(O)C(N)=O (centres unmarked) [Example 58, N-hydroxy-N-[4-(5-phenoxy-2-furyl)-3-butyn-2-yl]urea]
- IC50 [1]: 200 nM
- inhibition in vivo at 30 µmol/kg [2]: 83%

Structure (SMILES): CCC(C#Cc1cccc(Oc2ccccn2)c1)N(O)C(N)=O (centres unmarked) [Example 64, N-Hydroxy-N-[5-[3-(2-pyridinyloxy)phenyl]-4-pentyn-3-yl]urea]
- IC50 [1]: 600 nM
- inhibition in vivo at 30 µmol/kg [2]: 78%

Structure (SMILES): CC(C#CCCCc1ccccc1)N(O)C(N)=O (centres unmarked) [Example 11, N-Hydroxy,N-(7-phenyl-3-heptyn-2-yl)urea]
- IC50 [1]: 700 nM
- inhibition in vivo at 200 µmol/kg [2]: 99%

Structure (SMILES): Cc1ccc(Oc2ccc(C#CC(C)N(O)C(N)=O)o2)cc1 (centres unmarked) [Example 62, N-hydroxy-N-{4-[5-(4-methylphenoxy)-2-furyl]-3-butyn-2-yl}urea]
- IC50 [1]: 300 nM
- inhibition in vivo at 30 µmol/kg [2]: 65%

Structure (SMILES): CC(C#Cc1ccc(F)cc1)N(O)C(N)=O (centres unmarked) [Example 21, N-Hydroxy-N-[4,(4-fluorophenyl)-3-butyn-2-yl]urea]
- IC50 [1]: 2100 nM
- inhibition in vivo at 100 µmol/kg [2]: 90%

Structure (SMILES): CC(C#Cc1ccc(Cl)cc1)N(O)C(N)=O (centres unmarked) [Example 19, N-Hydroxy-N-[4-(4-chlorophenyl)-3-butyn-2-yl]urea]
- IC50 [1]: 400 nM
- inhibition in vivo at 100 µmol/kg [2]: 82%

Structure (SMILES): CC(C#Cc1cccc(Oc2nccs2)c1)N(O)C(N)=O (centres unmarked) [Example 66, N-Hydroxy-N-[4-[3-(2-thiazolyloxy)phenyl]-3-butyn-2-yl]urea]
- IC50 [1]: 500 nM
- inhibition in vivo at 30 µmol/kg [2]: 40%

Structure (SMILES): CC(C#Cc1cccc(Oc2cccc(Cl)n2)c1)N(O)C(N)=O (centres unmarked) [Example 68, N-Hydoxy-N-[4-[3-(6-chloropyridin-2-yloxy)phenyl]-3-butyn-2-yl]urea]
- IC50 [1]: 200 nM
- inhibition in vivo at 30 µmol/kg [2]: 61%

Structure (SMILES): CC(C#CCSc1ccccc1)N(O)C(N)=O (centres unmarked) [Example 4, N-Hydroxy-N-(5phenylthio-3-pentyn-2-yl)urea]
- IC50 [1]: 400 nM
- inhibition in vivo at 200 µmol/kg [2]: 64%

Structure (SMILES): NC(=O)N(O)CC#Cc1cccc(Oc2ccc(F)cc2)c1 [Example 44, N-Hydroxy-N-[3-[3-(4-fluorophenoxy)phenyl]-2-propynyl]urea]
- IC50 [1]: 400 nM
- inhibition in vivo at 100 µmol/kg [2]: 99%

Structure (SMILES): CC(C#Cc1cccc(Oc2ccccn2)c1)N(O)C(N)=O (centres unmarked) [Example 47, N-Hydroxy-N-[4-[3-(2-pyridinyloxy)phenyl]-3-butyn-2-yl]urea]
- IC50 [1]: 900 nM
- inhibition in vivo at 100 µmol/kg [2]: 99%

Structure (SMILES): CNC(=O)N(O)C(C)C#Cc1ccc(Cl)cc1 (centres unmarked) [Example 20, N-Hydroxy-N-[4-(4-chlorophenyl)-3-butyn-2-yl]-N'-methylurea]
- IC50 [1]: 1100 nM
- inhibition in vivo at 100 µmol/kg [2]: 89%

Structure (SMILES): CC(C#Cc1ccc(Br)cc1)N(O)C(N)=O (centres unmarked) [Example 17, N-Hydroxy-N-[4-(4-bromophenyl)-3-butyn-2-yl]urea]
- IC50 [1]: 800 nM
- inhibition in vivo at 200 µmol/kg [2]: 98%

Structure (SMILES): Cc1ccc(Oc2cccc(C#CCN(O)C(N)=O)c2)cc1 [Example 36, N-Hydroxy-N-[3-[3-(4-methylphenoxy)phenyl]-2-propynyl]urea]
- IC50 [1]: 600 nM
- inhibition in vivo at 100 µmol/kg [2]: 99%

Structure (SMILES): Cc1cccc(Oc2cccc(C#CC(C)N(O)C(N)=O)c2)n1 (centres unmarked) [Example 67, N-Hydroxy-N-[4-[3-(6-methylpyridin-2-yloxy)phenyl]-3-butyn-2-yl]urea]
- IC50 [1]: 300 nM
- inhibition in vivo at 30 µmol/kg [2]: 56%

Structure (SMILES): CC(C#Cc1cccc(Oc2ccncc2)c1)N(O)C(N)=O (centres unmarked) [Example 46, N-Hydroxy-N-[4-[3-(4-pyridinyloxy)phenyl]-3-butyn-2-yl]urea]
- IC50 [1]: 1200 nM
- inhibition in vivo at 100 µmol/kg [2]: 98%

Structure (SMILES): CC(C#Cc1ccoc1)N(O)C(N)=O (centres unmarked) [Example 34, N-Hydroxy-N-[4-(3-furyl)-3-butyn-2-yl]urea]
- IC50 [1]: 7000 nM
- inhibition in vivo at 100 µmol/kg [2]: 96%

Structure (SMILES): CC(C#Cc1cccc(Oc2ccc(F)cc2)c1)N(O)C(N)=O (centres unmarked) [Example 43, N-Hydroxy-N-[4-[3-(4-fluorophenoxy)phenyl]-3-butyn-2-yl]urea]
- IC50 [1]: 300 nM
- inhibition in vivo at 100 µmol/kg [2]: 98%

Reference: patent US5559144A, “Furyl and thienyl alkynyl-N-hydroxy urea derivatives” (Abbott Laboratories, priority 1995, dated 1996)
